{
  "source": "patent US20040071787A1",
  "about": "“Pharmacologic, therapeutic and diagnostic regulation of FGF-1 export” (Maine Medical Center Research Institute, priority 1996, published 2004)",
  "key": {"[1]": {"system": "NIH 3T3 FGF-1-β-gal:p65 Syn-1 co-transfectants", "assay": "Effects of pharmacologic inhibitors on heat shock induced release of p40", "type": "cell-based, murine", "settings": "heat shock 42° C. for 100 min", "description": "(§1) Stable NIH 3T3 FGF-1:β-gal transfectants were co-transfected with either p65 Syn-1, p65(Δ120-214) or p40 and maintained in Dulbecco's modified Eagle's medium (DMEM, GIBCO-BRL, Grand Island, N.Y.) containing 10% (v/v) bovine calf serum (BCS, Hyclone, Logan, Utah), 1× antibiotic-antimycotic (GIBCO-BRL) and 200 μg/ml G418 (GIBCO-BRL) and 250 μg/ml hygromycin (Boehringer Mannheim, Indianapolis, Ind.) on sterile tissue culture dishes coated with 10 μg/cm^2 human fibronectin prepared from human plasma by affinity adsorption to a column of immobilized type I collagen by methods well known in the art. Confluent monolayers of co-transfectants were rinsed with DMEM containing 4 U/ml heparin (Upjohn, Kalamazoo, Mich.) and subjected to heat shock (42° C. for 100 min) in DMEM containing 4 U/ml heparin and 0.5% BCS as described (Jackson et al., Proc. Nat. Acad. Sci. USA 89:10691, 1992). For each Syn-1 construct, three independent co-transfectant clones were tested.\nFollowing heat shock, conditioned media were collected, filtered using 0.2 μm filters (Millipore, Bedfore, Mass. ) according to the supplier's recommendations, and activated with 0.1% (w/v) dithiothreitol (DTT, Sigma, St. Louis, Mo.) for 2 h at 37° C. (Jackson et al., J. Biol. Chem. 270:33, 1995). Conditioned media were then passed over a column of heparin-Sepharose™ CL-6B (Pharmacia Biotech, Piscataway, N.J.) equilibrated and eluted with 50 mM Tris pH 7.4 containing 10 mM EDTA (TE buffer, TEB). Following TEB washing, the column was eluted with 1.5 M NaCl in TEB and the eluate collected and concentrated using a Centricon™ 10 concentrator (Amicon, Inc., Beverly, Mass.) according to the manufacturer's instructions. Aliquots of the concentrated eluates were analyzed by 10% sodium dodecylsulfate polyacrylamide gel electrophoresis (SDS-PAGE) as described (Jackson et al., J. Biol Chem. 270:33, 1995). Electrophoretically separated samples were further characterized by immunoblot analysis as described (Jackson et al., Proc. Nat. Acad. Sci. USA 89:10691, 1992). […]"}, "[2]": {"system": "FGF-1-NIH 3T3 transfectants", "settings": "agent in the media of cultured cells exposed to heat shock; cited from earlier work"}, "[3]": {"system": "NIH 3T3 FGF-1-β-gal:p65 Syn-1 co-transfectants", "assay": "Heat shock induced release of FGF-1-β-gal and Syn-1 from co-transfectants, immunoblot of heparin binding fraction of conditioned medium", "type": "cell-based, murine", "settings": "heat shock 41.5° C. for 90 min; concentration dependent; FIG. 17", "description": "as §1, with “Confluent monolayers of co-transfectants were rinsed with DMEM containing 4 U/ml heparin (Upjohn, Kalamazoo, Mich.) and subjected to heat shock (42° C. for 100 min) in DMEM containing 4 U/ml heparin and 0.5% BCS as described (Jackson et al., Proc.” left out, “For each Syn-1 construct, three independent co-transfectant clones were tested.” left out\nFollowing heat shock, conditioned media were collected, filtered using 0.2 μm filters (Millipore, Bedfore, Mass. ) according to the supplier's recommendations, and activated with 0.1% (w/v) dithiothreitol (DTT, Sigma, St. Louis, Mo.) for 2 h at 37° C. […] Aliquots of the concentrated eluates were analyzed by 10% sodium dodecylsulfate polyacrylamide gel electrophoresis (SDS-PAGE) as described (Jackson et al., J. Biol Chem. 270:33, 1995). […]\nIn this Example, the effects of members of the amlexanox family of pharmacologic agents known to bind to S100A13 (Oyama et al., Biochem. Biophys. Res. Commun. 240:341, 1997) were evaluated in cell based assay systems for export of FGF1:Syn-1 complexes in vitro. […]"}, "[4]": {"system": "NIH-3T3 FGF-1-β-gal:p40 Syn-1 co-transfectants", "assay": "p40 Syn-1 release from p40 Syn-1 co-transfectants at 37° C. or after heat shock, Syn-1 immunoblot", "type": "cell-based, murine", "settings": "FIG. 18", "description": "Amlexanox was also tested for an effect on the heat shock response of NIH-3T3 FGF-1-β-gal:p40 Syn-1 co-transfectants described above in Example 11. Media were conditioned by two 150 mm dishes of NIH3T3 cells stably co-transfected with FGF-1:β-Gal and rat p40 Syn-1 after exposure to temperature stress (41.5° C., 90 min) with or without treatment. The media were collected and resolved by 10% acrylamide SDS-PAGE under reducing conditions followed by immunoblot analysis for Syn-1 as described herein and in the cited references.\n(FIG. 18: Lane 1: media derived from NIH3T3 cell FGF-1:β-Gal and p40 Syn1 co-transfectants maintained at 37° C. for 90 min. Lane 2: media derived from NIH3T3 cell FGF-1:β-gal and p40 Syn-1 co-transfectants following heat shock. Lanes 3 and 4: media derived from NIH3T3 cell FGF-1:β-gal and p40 Syn-1 co-transfectants maintained at 37° C. in the presence of 5×10^−5M, and […] AA673 (amlexanox) respectively. Lane 5: media derived from NIH3T3 cell FGF-1:β-gal and p40 Syn-1 co-transfectants following heat shock in the presence of 3×10^−4M, AA673. Lane 6: 50 ng of recombinant rat p40 Syn-1.)"}, "[5]": {"system": "NIH 3T3 FGF-1 transfectants", "assay": "Heat shock induced FGF-1 and p40 Syn-1 release by FGF-1 transfectants, immunoblot of conditioned media", "type": "cell-based, murine", "description": "Chemical derivatives of amlexanox were tested for their effects on FGF-1 and p40 Syn-1 release by NIH 3T3 FGF-1 transfectants in response to heat shock. Media were conditioned by three 150 mm dishes of NIH3T3 cells stably transfected with FGF-1α (residues 21-154) after exposure to 41.5° C. for 90 min with or without amlexanox or the indicated amlexanox derivative. The media were collected and resolved by 12.5% acrylamide SDS-PAGE under reducing conditions followed by immunoblot analysis for FGF-1 as described herein.\n(FIG. 19: Lane 1: media derived from NIH3T3 cell FGF-1 transfectants following heat shock in the absence of any drug; Lanes 2 through 4: media derived from NIH3T3 cell FGF-1 transfectants following heat shock in the presence of 1×10^−6 M, 1×10^−5 M, 1×10^−4 M, A673 (amlexanox) respectively; Lanes 5 through 7: media derived from NIH3T3 cell FGF-1 transfectants following heat shock in the presence of 1×10^−6 M, 1×10^−5 M, 1×10^−4 M AA617 respectively; Lanes 8 through 10: media derived from NIH3T3 cell FGF-1 transfectants following heat shock in the presence of 1×10^−6 M, 1×10^−5 M, 1×10^−4 M AA648 respectively; Lanes 11 through 13: media derived from NIH3T3 cell FGF-1 transfectants following heat shock in the presence of 1×10^−6 M, 1×10^−5 M, 1×10^−4 M, AA777 respectively; Lane 14: media derived from NIH3T3 cell FGF-1 transfectants maintained at 37° C. for 90 min; Lane 15, 50 ng of recombinant human FGF-1α. The structures of amlexanox (AA673) and its derivatives are also shown."}, "[6]": {"system": "3T3 cell line transfected with a chimeric FGF-1 construct having a functional signal sequence", "assay": "Secretion by 3T3 cell line transfected with chimeric FGF-1 construct having a functional signal sequence (classical ER-Golgi pathway)", "type": "cell-based", "settings": "not shown", "from_the_text": "In a concentration dependent fashion, amlexanox inhibited the release of both FGF-1-β-gal and Syn-1 from NIH 3T3 FGF-1-β-gal:p65 Syn-1 co-transfectants in response to heat shock (FIG. 17). […] A 3T3 cell line transfected with a chimeric FGF-1 construct having a functional signal sequence for secretion via the classical ER-Golgi protein secretory pathway (Forough et al., J. Biol. Chem. 268:2960, 1993) was unaffected by amlexanox by several phenotypic criteria, including secretory activity (not shown)."}, "[7]": {"target": "the molecule itself", "assay": "Cu2+ oxidation, non-reduced SDS-PAGE", "description": "Purified FGF-1 and p40 Syn-1 were incubated with, and without, Cu²⁺ for 10 min. and resolved on two non-reduced SDS-PAGE gels (A and B), as described by Maciag et al., Recent Prog. Horm. Res. 49:105-123 (1993). The systems were identical except gel 5B was immunoblotted with FGF-1 antibody, whereas gel 5A was not.\nHowever, when FGF-1 and p40 Syn-1 were added together, non-reduced SDS-PAGE was able to resolve a unique component with an apparent Mᵣ˜66,000 (FIG. 6A). To determine whether this band contained FGF-1, this experiment was repeated and analyzed by FGF-1 immunoblot analysis."}, "[8]": {"settings": "41.5° C. for 90 min, 1×10^−6 M, 1×10^−5 M, 1×10^−4 M, FIG. 19"}},
  "note": "“Also recorded” adds a separate entry of the source. Starred links: 1 amine or outer side, 2 acyl side, 3 side chain; linkers in the order of their positions; H or OH if unused. Positions of bridges follow the written chain, without caps; N, C: chain ends. Non-standard residues stand in square brackets, D forms with d. Residues, ends and D or L forms follow the SMILES beside them. Chains are numbered I, II in the order given. Actinocin(9to1) = Cc1c2oc3c(C)ccc(C(=O)[*:1])c3nc-2c(C(=O)[*:2])c(N)c1=O; NMeV = CN[C@H](C(=O)O)C(C)C; Sar = CNCC(=O)O",
  "data": [
    {"molecule": "Cc1c2oc3c(C)ccc(C(=O)N[C@@H]4C(=O)N[C@H](C(C)C)C(=O)N5CCC[C@H]5C(=O)N(C)CC(=O)N(C)[C@@H](C(C)C)C(=O)O[C@@H]4C)c3nc-2c(C(=O)N[C@@H]2C(=O)N[C@H](C(C)C)C(=O)N3CCC[C@H]3C(=O)N(C)CC(=O)N(C)[C@@H](C(C)C)C(=O)O[C@@H]2C)c(N)c1=O", "note": "[actinomycin D] (I: T[dV]P[Sar][NMeV] / II: T[dV]P[Sar][NMeV]; ester I:1-I:C, II:1-II:C; linker I:N-II:N via Actinocin(9to1))", "values": [
      {"measurement": "heat shock induced release of p40", "setting": "[1]", "result": "inhibited"},
      {"measurement": "release of latent FGF-1", "setting": "[2]", "result": "inhibited"}
    ]},
    {"molecule": "C[C@H]1CCC/C=C/[C@@H]2C[C@H](O)C[C@H]2[C@H](O)/C=C/C(=O)O1", "note": "[brefeldin A]", "values": [
      {"measurement": "heat shock induced release of p40", "setting": "[1]", "result": "unaffected"}
    ]},
    {"molecule": "C[C@@H]1C[C@@H]([C@H](O)CC2CC(=O)NC(=O)C2)C(=O)[C@@H](C)C1", "note": "[cycloheximide]", "values": [
      {"measurement": "heat shock induced release of p40", "setting": "[1]", "result": "inhibited"},
      {"measurement": "release of latent FGF-1", "setting": "[2]", "result": "inhibited"}
    ]},
    {"molecule": "CC(C)c1ccc2oc3nc(N)c(C(=O)O)cc3c(=O)c2c1", "note": "[amlexanox]", "values": [
      {"measurement": "release of FGF-1-β-gal in response to heat shock", "setting": "[3]", "result": "inhibited; also recorded: inhibition"},
      {"measurement": "release of Syn-1 in response to heat shock", "setting": "[3]", "result": "inhibited; also recorded: inhibition"},
      {"measurement": "constitutive release of p40 Syn-1", "setting": "[4]; 37° C., 5×10^−5M and 3×10^−1M AA673", "result": "no effect"},
      {"measurement": "enhanced p40 export in response to heat shock", "setting": "[4]; heat shock 41.5° C., 90 min, 3×10^−4M AA673", "result": "did inhibit"},
      {"measurement": "FGF-1 release in response to temperature stress", "setting": "[5]; [8]", "result": "inhibition"},
      {"measurement": "p40 Syn-1 release in response to temperature stress", "setting": "[5]; [8]", "result": "inhibition"},
      {"measurement": "FGF-1 release in response to heat shock", "setting": "[5]; NIH 3T3 cell line stably transfected with FGF-1 instead of FGF-1-β-gal, not shown", "result": "inhibited FGF-1 release"},
      {"measurement": "effect on phenotypic criteria, including secretory activity", "setting": "[6]", "result": "unaffected"}
    ]},
    {"molecule": "recombinant human p40 Syn-1 (other, UniProt P21579 104-422, looked up, domain: p40 form of Syn-1; also called p45; p40/45) MKDVKDLGKTMKDQALKDDDAETGLTDGEEKEEPKEEEKLGKLQYSLDYDFQNNQLLVGIIQAAELPALDMGGTSDPYVKVFLLPDKKKKFETKVHRKTLNPVFNEQFTFKVPYSELGGKTLVMAVYDFDRFSKHDIIGEFKVPMNTVDFGHVTEEWRDLQSAEKEEQEKLGDICFSLRYVPTAGKLTVVILEAKNLKKMDVGGLSDPYVKIHLMQNGKRLKKKKTTIKKNTLNPYYNESFSFEVPFEQIQKVQVVVTVLDYDKIGKNDAIGKVFVGYNSTGAELRHWSDMLANPRRPIAQWHTLQVEEEVDAMLAVKK", "values": [
      {"measurement": "binding result", "setting": "[7]", "result": "no binding"}
    ]}
  ]
}
